Test results reported in patent US4298525A, “Bis-indole-alkaloid” (Richter Gedeon Vegyeszeti Gyar RT, priority 1979, dated 1981).
Where two headings read alike, the source gives them in different places.

What was measured:
[1] = animals; cited from earlier work
[2] = human therapy; Rohn, R. et al.; cited from earlier work
NK/Ly ascites lymphoma = assay: effect on NK/Ly ascites lymphoma; type: in vivo, outbred Swiss mice
Experimental: Tests were carried out analogously with the Ehrlich ascites test.
(§1) Transplantation was carried out into outbred Swiss mice at a level of 5×10^6 ascites tumor cells. Administration of RGH-4451 was started 24 hours after transplantation.

[3] = therapeutic effect, MTD/min eff. D; conditions: in vivo
[4] = overall tumor-growth inhibition and prolongation of life (summary of the tests); type: in vivo
Experimental: From the tests described hereinabove it can be concluded that 1.0 to 10.0 mg./kg. daily doses or 20 mg./kg. single doses of RGH-4451 have a significant tumor-growth inhibition effect and prolong the duration of life.

P 388 leukemia = assay: effect on P 388 leukemia tumors of mice; type: in vivo, BDF1 hybrid mice
From the text: 10^6 P 388 leukemia cells were transplanted into BDF1 hybrid mice intraperitoneally. Administration of RGH-4451 was started the day following the transplantation.

Guerin sc. carcinoma = assay: effect on Guerin sc. carcinoma; type: in vivo, Wistar rats; conditions: for Mortality until the 22nd day/number of animals / Inhibition / Weight of tumor, treated: six subsequent days; for Inhibition / Weight of tumor, treated: 22nd day
Experimental: Tumors were transplanted into Wistar rats subcutaneously. Administration of RGH-4451 was started on the day following the transplantation and the compound was administered six subsequent days intraperitoneally. The inhibition of tumor growth was evaluated on the 22nd day.

[5] = paralytic symptoms at sublethal doses; type: in vivo; conditions: even at sublethal doses; by contrast with vincristine
P 388 tumor cells = assay: inhibition of tumor growth in tissue culture, P 388; type: cell-based, mice; conditions: for inhibition at 0.1 µg/mL: Mus musculus, P388
Experimental: The inhibition of tumor growth was initially studied in a tissue culture. A 20 mg./ml. solution of RGH-4451 in a Fischer medium was prepared and subsequently diluted to the desired concentration. The number of cells in the P 388 cultures was determined 24 and 48 hours after treatment.
The inhibition was 43% after 24 hours and 89% after 48 hours. In in vitro tests the compound was 100-times less toxic than vincristine and 4-times less toxic than N-desmethyl-N-formyl-leurosine.

[6] = acute toxicity on mice (LD50, i.p.); type: in vivo
Experimental: The acute toxicity of RGH-4451 was tested on mice.
The lethal dose killed the animals on the 2nd to 5th day.

[7] = tested on: Ehrlich ascites carcinoma; assay: effect on Ehrlich ascites carcinoma; type: in vivo, outbred Swiss mice; conditions: for Mean duration of life expressed in % of treated*/control: second part of table, maximum 400%
Experimental: as §1

S 180 sc. carcinoma = assay: effect on S 180 sc. carcinoma; type: in vivo, Swiss mice; conditions: even at doses as high as 16 mg/kg i.p. daily
Experimental: S 180 sc. tumor tissues were transplanted into Swiss mice subcutaneously. Treatment was started 24 hours after transplantation. RGH-4451 was administered once a day in a dose of 2, 4, 8 and 16 mg./kg., respectively intraperitoneally. The tumor growth inhibition was evaluated on the 11th day on the basis of the weight of tumors. The change of the weight of spleen was also monitored.

[8] = in vivo
[9] = administration of vincristine; cited from earlier work
[10] = 3.2 mg/kg i.p., 9 treatments, every day
[11] = 3.2 mg/kg i.p., 9 treatments, every day, control 12.3 days
[12] = 5.0 mg/kg i.p., 9 treatments, every day
[13] = 5.0 mg/kg i.p., 9 treatments, every day, control 13.2 days
[14] = 6.4 mg/kg i.p., 9 treatments, every day
[15] = 6.4 mg/kg i.p., 9 treatments, every day, control 12.3 days
[16] = 10 mg/kg i.p., 5 treatments, every second day
[17] = 10 mg/kg i.p., 5 treatments, every second day, control 10.5 days
[18] = 20 mg/kg i.p., 1 treatment, control 10.5 days
[19] = 20 mg/kg i.p., 6 treatments, every day
[20] = 20 mg/kg i.p., 6 treatments, every day, control 13.2 days
[21] = 2.0 mg/kg i.p., 9 treatments, every day
[22] = 4.0 mg/kg i.p., 9 treatments, every day
[23] = 6.0 mg/kg i.p., 9 treatments, every day

## CC[C@]12CN3CCc4c([nH]c5ccccc45)[C@@](C(=O)OC)(c4cc5c(cc4OC)N(C)[C@H]4[C@@](O)(C(=O)OC)[C@H](OC(C)=O)[C@]6(CC)C=CCN7CC[C@]54[C@@H]76)C[C@H](C3)[C@H]1O2 [leurosine]
[1]
  antitumor activity: antitumor activity of leurosine has been proved on animals
[2]
  toxicity on the hematopoietic organs: unreasonably high toxicity on the hematopoietic organs

## CCOCN1c2cc(OC)c(C3(C(=O)OC)CC4CN(CCc5c3[nH]c3ccccc53)CC(O)(CC)C4)cc2C23CCN4CC=CC(CC)(C(OC(C)=O)C(O)(C(=O)OC)C12)C43 (centres unmarked) [RGH-4451]
NK/Ly ascites lymphoma; [10]
  Mean duration of life expressed in % of treated/control: 181%
NK/Ly ascites lymphoma; [11]
  Mean duration of life, treated: 22.3 days
NK/Ly ascites lymphoma; [12]
  Mean duration of life expressed in % of treated/control: 163%
NK/Ly ascites lymphoma; [13]
  Mean duration of life, treated: 21.5 days
NK/Ly ascites lymphoma; [14]
  Mean duration of life expressed in % of treated/control: 166%
NK/Ly ascites lymphoma; [15]
  Mean duration of life, treated: 20.5 days
NK/Ly ascites lymphoma; [16]
  Mean duration of life expressed in % of treated/control: 208%
NK/Ly ascites lymphoma; [17]
  Mean duration of life, treated: 21.8 days
NK/Ly ascites lymphoma; 20 mg/kg every day, cannot be administered due to its toxicity
  tolerability of the large dose given every day (in words): cannot be administered every
NK/Ly ascites lymphoma; 20 mg/kg i.p., 1 treatment
  Mean duration of life expressed in % of treated/control: 185%
NK/Ly ascites lymphoma; [18]
  Mean duration of life, treated: 19.4 days
NK/Ly ascites lymphoma; [19]
  Mean duration of life expressed in % of treated/control: 64%
NK/Ly ascites lymphoma; [20]
  Mean duration of life, treated: 8.5 days
NK/Ly ascites lymphoma; 3.2 to 6.4 mg/kg doses every day
  duration of life of the tumorous animals (in words): considerably been prolonged
NK/Ly ascites lymphoma; single 20 mg/kg dose
  effect on duration of life (in words): also effective
[3]
  MTD/min eff. D: 10
[4]
  single dose with a significant tumor-growth inhibition effect and prolongation of life: 20 mg/kg
P 388 leukemia; [10]
  Mean duration of life expressed in % of treated/control: 181%
P 388 leukemia; [11]
  Mean duration of life, treated: 22.3 days
P 388 leukemia; [12]
  Mean duration of life expressed in % of treated/control: 163%
P 388 leukemia; [13]
  Mean duration of life, treated: 21.5 days
P 388 leukemia; [14]
  Mean duration of life expressed in % of treated/control: 166%
P 388 leukemia; [15]
  Mean duration of life, treated: 20.5 days
P 388 leukemia; [16]
  Mean duration of life expressed in % of treated/control: 208%
P 388 leukemia; [17]
  Mean duration of life, treated: 21.8 days
P 388 leukemia; 20 mg/kg i.p., 1 treatment
  Mean duration of life expressed in % of treated/control: 185%
P 388 leukemia; [18]
  Mean duration of life, treated: 19.4 days
P 388 leukemia; [19]
  Mean duration of life expressed in % of treated/control: 64%
P 388 leukemia; [20]
  Mean duration of life, treated: 8.5 days
Guerin sc. carcinoma; 2.0 mg/kg i.p.
  Mortality until the 22nd day/number of animals: 0/6
  Inhibition: 43
Guerin sc. carcinoma; 2.0 mg/kg i.p., control 18.9
  Weight of tumor, treated: 10.7
Guerin sc. carcinoma; 6.0 mg/kg i.p.
  Mortality until the 22nd day/number of animals: 0/6
  Inhibition: 81
Guerin sc. carcinoma; 6.0 mg/kg i.p., control 44.9
  Weight of tumor, treated: 8.69
Guerin sc. carcinoma; 10.0 mg/kg i.p.
  Mortality until the 22nd day/number of animals: 0/6
  Inhibition: 68
Guerin sc. carcinoma; 10.0 mg/kg i.p., control 44.9
  Weight of tumor, treated: 14.64
Guerin sc. carcinoma; 14.0 mg/kg i.p.
  Mortality until the 22nd day/number of animals: 5/6
Guerin sc. carcinoma; 2 to 10 mg/kg i.p. doses
  growth of Guerin carcinoma (in words): strongly inhibited
[5]
  paralytic symptoms: entirely lacking
P 388 tumor cells; 10^-1 μg./ml.
  growth of P 388 tumor cells (in words): considerably inhibited
P 388 tumor cells; 10^-1 μg./ml., after 24 hours
  inhibition at 0.1 µg/mL: 43%
P 388 tumor cells; 10^-1 μg./ml., after 48 hours
  inhibition at 0.1 µg/mL: 89%
P 388 tumor cells; in vitro, less toxic than N-desmethyl-N-formyl-leurosine
  in vitro toxicity, times less toxic than N-desmethyl-N-formyl-leurosine: 4 times
P 388 tumor cells; in vitro, less toxic than vincristine
  in vitro toxicity, times less toxic than vincristine: 100 times
[6]; i.p.
  LD50 of RGH-4451 as multiple of that of N-desmethyl-N-formyl-leurosine: 2.5 times
  LD50 of RGH-4451 as multiple of that of vinblastine: about 10 times
  LD50 of RGH-4451 as multiple of that of vincristine: 17 fold
[6]; lethal dose
  paralytic symptoms accompanying death: not accompanied by paralytic symptoms
[6]; mouse, in vivo, ip
  LD50: 70 mg/kg
[6]; survivors, in contrast with vincristine
  crippling of surviving animals: not crippled even temporarily
[7]; 1.0 mg/kg i.p., 9 treatments, every day
  Mean duration of life expressed in % of treated/control: 15.4%
[7]; 1.0 mg/kg i.p., 9 treatments, every day, control 15.4 days
  Mean duration of life, treated: 54.2 days
[7]; [21]
  On the 65th day alive: 9/10
  On the 65th day tumor-free: 6/10
  Mean duration of life expressed in % of treated*/control: 392%
[7]; 2.0 mg/kg i.p., 9 treatments, every day, control 16.4 days, first part of table
  Mean duration of life, treated: 43.0 days
[7]; 2.0 mg/kg i.p., 9 treatments, every day, control 16.4 days, second part of table (65th day)
  Mean duration of life, treated: 64.1 days
[7]; 2.0 mg/kg i.p., 9 treatments, every day, first part of table
  Mean duration of life expressed in % of treated/control: 261%
[7]; [22]
  On the 65th day alive: 8/10
  On the 65th day tumor-free: 7/10
  Mean duration of life expressed in % of treated*/control: 384%
[7]; 4.0 mg/kg i.p., 9 treatments, every day, control 16.4 days, first part of table
  Mean duration of life, treated: 36.4 days
[7]; 4.0 mg/kg i.p., 9 treatments, every day, control 16.4 days, second part of table (65th day)
  Mean duration of life, treated: 62.9 days
[7]; 4.0 mg/kg i.p., 9 treatments, every day, first part of table
  Mean duration of life expressed in % of treated/control: 222%
[7]; [23]
  On the 65th day alive: 8/10
  On the 65th day tumor-free: 4/10
  Mean duration of life expressed in % of treated*/control: 394%
[7]; 6.0 mg/kg i.p., 9 treatments, every day, control 15.9 days, first part of table
  Mean duration of life, treated: 48.2 days
[7]; 6.0 mg/kg i.p., 9 treatments, every day, control 16.7 days, second part of table (65th day)
  Mean duration of life, treated: 65.8 days
[7]; 6.0 mg/kg i.p., 9 treatments, every day, first part of table
  Mean duration of life expressed in % of treated/control: 303%
[7]; 20 mg/kg i.p., 1 treatment
  On the 65th day alive: 8/10
  On the 65th day tumor-free: 3/10
  Mean duration of life expressed in % of treated*/control: 392%
[7]; 20 mg/kg i.p., 1 treatment, control 16.7 days, second part of table (65th day)
  Mean duration of life, treated: 65.5 days
[7]; 2 to 6 mg/kg once a day
  antitumor effect (in words): remarkable antitumor effect
  proportion of treated animals tumor-free on the 65th day (in words): a great part of the treated animals is tumor-free on the 65th day
S 180 sc. carcinoma
  decrease in the weight of spleen: no substantial decrease in the weight of spleen

## CCC12CN3CCc4c([nH]c5ccccc45)C(C(=O)OC)(c4cc5c(cc4OC)N(C=O)C4C(O)(C(=O)OC)C(OC(C)=O)C6(CC)C=CCN7CCC54C76)CC(C3)C1O2 (centres unmarked) [N-desmethyl-N-formyl-leurosine, reference compound]
[8]
  MTD/min eff. D: 4
[7]
  effect of a large single dose on the duration of life: did not increase the duration of life

## CC[C@]1(O)C[C@H]2CN(CCc3c([nH]c4ccccc34)[C@@](C(=O)OC)(c3cc4c(cc3OC)N(C=O)[C@H]3[C@@](O)(C(=O)OC)[C@H](OC(C)=O)[C@]5(CC)C=CCN6CC[C@]43[C@@H]65)C2)C1 [vincristine, N-desmethyl-N-formylvinblastine]
[8]
  MTD/min eff. D: 6
[7]
  effect of a large single dose on the duration of life: did not increase the duration of life
[9]
  toxic side effects: paralytic symptoms due to neurotoxicity
